Consider 23 compounds from ChEMBL document CHEMBL5579847, “Synthesis, design, and optimization of a potent and selective series of pyridylpiperazines as promising antimalarial agents” (Eur J Med Chem, 2024).

Active and inactive are the calls of the source. No cut-off for these calls is given here.

Data set [1] in a line: Selectivity index, ratio of CC50 for cytotoxicity against human HepG2 cell to IC50 for antimalarial activity against chloroquine-resistant Plasmodium falciparum Dd2 infected in red blood cells. The class given is toxicity, cell-based. The conditions noted are these: read-out: Ratio CC50/IC50.
Data set [2] can be described thus: Cytotoxicity against human HepG2 cells assessed as reduction in cell viability after 48 hrs by WST-1 assay. The class given is toxicity, cell-based. In general terms: Tetrazolium dyes change colour on reduction, which living cells bring about.
Data set [3] can be described thus: Selectivity index, ratio of CC50 for cytotoxicity against human HepG2 cell to IC50 for antimalarial activity against Plasmodium falciparum 3D7 infected in red blood cells. Type of data set: toxicity, cell-based. The conditions noted are these: read-out: Ratio CC50/IC50.
The test system of data set [4] is Plasmodium falciparum. The data set is described as follows: Antimalarial activity against chloroquine-resistant Plasmodium falciparum Dd2 infected in red blood cells after 96 hrs by SYBR Green I dye based fluorescence assay. Type of data set: functional, organism-based, Red blood cell. The following applies: Dd2, Erythrocyte.
For data set [5], the system named is Plasmodium falciparum. Nature of the data set: Antimalarial activity against Plasmodium falciparum 3D7 infected in red blood cells after 96 hrs by SYBR Green I dye based fluorescence assay. The class given is functional, organism-based, Red blood cell. The conditions noted are these: 3D7, Erythrocyte.
Data set [6] has as its target T1, Dihydroorotate dehydrogenase (quinone), mitochondrial (Plasmodium falciparum (isolate 3D7)) (UniProt Q08210).
T1 sequence (whole entry): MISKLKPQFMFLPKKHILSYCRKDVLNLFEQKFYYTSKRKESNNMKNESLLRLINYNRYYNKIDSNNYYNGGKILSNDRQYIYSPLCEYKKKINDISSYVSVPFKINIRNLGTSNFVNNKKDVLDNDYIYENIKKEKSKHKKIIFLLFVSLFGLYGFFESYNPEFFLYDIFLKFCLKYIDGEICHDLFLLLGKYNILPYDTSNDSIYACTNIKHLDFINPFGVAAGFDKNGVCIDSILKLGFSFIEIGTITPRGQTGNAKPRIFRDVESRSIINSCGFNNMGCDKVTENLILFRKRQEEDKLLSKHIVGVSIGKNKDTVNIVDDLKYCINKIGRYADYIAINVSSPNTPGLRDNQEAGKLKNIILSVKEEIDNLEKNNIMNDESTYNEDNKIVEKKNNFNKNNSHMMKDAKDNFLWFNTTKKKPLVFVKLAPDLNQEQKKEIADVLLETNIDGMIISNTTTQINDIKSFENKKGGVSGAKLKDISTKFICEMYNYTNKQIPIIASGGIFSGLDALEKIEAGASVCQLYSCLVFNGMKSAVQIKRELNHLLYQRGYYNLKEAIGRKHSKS
Nature of the data set: Inhibition of Plasmodium falciparum DHODH.

Data set [7] has as its target T1, Dihydroorotate dehydrogenase (quinone), mitochondrial (Plasmodium falciparum (isolate 3D7)). Nature of the data set: Inhibition of Plasmodium falciparum DHODH at 250 uM relative to control.

Usually CC50 stands for the concentration giving 50% cytotoxicity. The IC50 is the point on the concentration scale where inhibition reaches its midpoint. Read a low IC50 as inhibition by little substance. For `N#Cc1cccnc1N1CCN(c2ccc(C(=O)NC3CC3)cn2)CC1`, the results for the selectivity ratio in data set [1] and in data set [3] were > 7 and > 15, respectively. In addition, the CC50 at 48 h in data set [2] is > 100 µM. Moreover, the IC50 in data set [4] was 15 µM; in data set [5], 6.7 µM.
Consider `O=C(NC1CC1)c1ccc(N2CCN(c3ccccn3)CC2)nc1`, for which the 50% cytotoxic concentration (CC50) at 48 h in data set [2] is > 100 µM. Further, the selectivity ratio in data set [3] is > 7. The compound also displayed an IC50 in data set [5] of 13.9 µM.
For `Nc1cccnc1N1CCN(c2ccc(C(=O)NC3CC3)cn2)CC1`, the midpoint of inhibition in data set [5], the IC50, lay at 46.4 µM.
As for `COc1ccc(N2CCN(c3ccc(C(=O)NC4CC4)cn3)CC2)cc1`, the IC50 in data set [4] was 9.4 µM; in data set [5] it was 2.9 µM.
Consider `O=C(NC1CC1)c1ccc(N2CCN(c3cccc(O)c3)CC2)nc1`, for which the values for the selectivity ratio in data set [1] and in data set [3] were 5 and 9, respectively. In addition, in data set [2], the CC50 at 48 h was determined as 36.2 µM. Besides, the results for the half-inhibitory concentration (IC50) in data set [4] and in data set [5] were 7.3 µM and 4.1 µM, respectively.
The term inhibition denotes the relative decrease from the control value, in per cent. As to `O=C(NC1CC1)c1ccc(N2CCN(c3ncccc3C(F)(F)F)CC2)nc1`, the inhibition result in data set [6] was “inactive”. Further, the selectivity ratio in data set [1] was > 23; in data set [3], > 96. Besides, in data set [2], the 50% cytotoxic concentration (CC50) at 48 h was > 100 µM. Besides, the half-maximal inhibitory concentration (IC50) came out at 4.4 µM in data set [4] and 1 µM in data set [5].
Turning to `O=C(NC1CC1)c1ccc(N2CCN(c3ccccc3)CC2)nc1`, the selectivity ratio in data set [1] was > 30; in data set [3], > 21. For the same compound, the half-maximal cytotoxic concentration (CC50) at 48 h in data set [2] is > 100 µM. Also, the figures for the IC50 in data set [4] and in data set [5] were 3.3 µM and 6 µM, respectively.
With `O=C(NC1CC1)c1ccc(N2CCN(c3ccccc3F)CC2)nc1`, the inhibition result in data set [6] is “inactive”. The IC50 is 2.3 µM in data set [4] and 1.3 µM in data set [5].
With `O=C(NC1CC1)c1ccc(N2CCN(C(=O)c3ccccn3)CC2)nc1`, the IC50 in data set [5] was > 100 µM.
For the compound `O=C(NC1CC1)c1ccc(N2CCN(c3ccccc3Cl)CC2)nc1`, the IC50 in data set [4] was 0.7 µM; in data set [5], 0.4 µM.
In the case of `CCN(CC)CCCC(C)Nc1ccnc2cc(Cl)ccc12` (stereo unspecified) [CHLOROQUINE], the concentration for half-maximal inhibition (IC50) in data set [5] amounted to 10.2 µM.
In data set [5], `O=C(NC1CC1)c1ccc(N2CCN(S(=O)(=O)c3ccccc3)CC2)nc1` had an IC50 of 37.2 µM.
For the compound `O=C(NC1CC1)c1ccc(N2CCN(c3ccc(C(F)(F)F)cn3)CC2)nc1`, the IC50 in data set [4] is 1.6 µM; in data set [5], 1.1 µM.
Consider `O=C(NC1CC1)c1ccc(N2CCN(c3ccccc3C(F)(F)F)CC2)nc1`, for which the inhibition entry in data set [6] was “inactive”. Moreover, the inhibition in data set [7] was 20%. In addition, the results for the selectivity ratio in data set [1] and in data set [3] were > 200 and > 59, respectively. Further, the CC50 at 48 h in data set [2] was > 100 µM. Besides, the IC50 came to 0.5 µM in data set [4] and 1.7 µM in data set [5].
Consider `O=C(NC1CC1)c1ccc(N2CCNCC2)nc1`, for which the IC50 in data set [5] was > 100 µM.
For `O=C(NC1CC1)c1ccc(N2CCN(C(=O)c3ccccc3)CC2)nc1`, the IC50 in data set [5] is > 100 µM.
Still for that read-out and setting: as for `CN1CCN(c2ccc(C(=O)NC3CC3)cn2)CC1`, the figure is > 100 µM.
Consider `O=C(NC1CC1)c1ccc(N2CCN(Cc3ccccc3)CC2)nc1`, for which the selectivity ratio came to 2 in data set [1] and 1 in data set [3]. Besides, the CC50 at 48 h in data set [2] was 12.1 µM. In addition, the IC50 in data set [4] is 6.1 µM; in data set [5] it was 10.9 µM.
Consider `O=C(NC1CC1)c1ccc(N2CCN(c3cnccn3)CC2)nc1`, for which the inhibition result in data set [6] was “inactive”. Moreover, the selectivity ratio in data set [1] is > 28; in data set [3] it was > 36. Further, the CC50 at 48 h in data set [2] was > 100 µM. Besides, the results for the IC50 in data set [4] and in data set [5] were 3.6 µM and 2.8 µM, respectively.
For `O=C(NC1CC1)c1ccc(N2CCN(c3ncccc3[N+](=O)[O-])CC2)nc1`, the selectivity ratio in data set [1] came out at 5; in data set [3], 9. For the same compound, the CC50 at 48 h in data set [2] was found to be 51.2 µM. Moreover, the figures for the half-inhibitory concentration (IC50) in data set [4] and in data set [5] were 10.2 µM and 5.7 µM, respectively.
With `COc1ccc(CN2CCN(c3ccc(C(=O)NC4CC4)cn3)CC2)cc1`, the selectivity ratio in data set [1] was > 8; in data set [3] it was > 15. Moreover, the 50% cytotoxic concentration (CC50) at 48 h in data set [2] was > 100 µM. Besides, the 50% inhibitory concentration (IC50) in data set [4] came out at 13 µM; in data set [5], 6.5 µM.
As for `O=C(NC1CC1)c1ccc(N2CCN(c3ncccn3)CC2)nc1`, the concentration for half-maximal inhibition (IC50) came out at 10.5 µM in data set [4] and 5.6 µM in data set [5].
Turning to `Cc1ccccc1N1CCN(c2ccc(C(=O)NC3CC3)cn2)CC1`, in data set [7], the inhibition is 30%. Further, the selectivity ratio in data set [1] is > 143; in data set [3], > 100. In data set [2], the cytotoxic concentration (CC50) at 48 h is > 100 µM. For the same compound, the IC50 came to 0.7 µM in data set [4] and 1 µM in data set [5].
